From PubChem BioAssay (NCI)
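Compound exposure: 48 hours, 5 concentrations, 96-well plates. Abbreviation: GI50, concentration required for 50% inhibition of growth. TGI is the concentration that stops growth completely.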

Columns and labels:
Test in all cases: growth of human tumour cells (NCI), 48 h
[1] = system: 786-0 renal
[2] = system: A498 renal
[3] = system: A549 NSCLC
[4] = system: ACHN renal
[5] = system: BT-549 breast
[6] = system: CAKI-1 renal
[7] = system: CCRF-CEM leukemia
[8] = system: COLO 205 colon
[9] = system: DU-145 prostate
[10] = system: EKVX NSCLC
[11] = system: HCC-2998 colon
[12] = system: HCT-116 colon
[13] = system: HCT-15 colon
[14] = system: HL-60(TB) leukemia
[15] = system: HOP-62 NSCLC
[16] = system: HOP-92 NSCLC
[17] = system: HT29 colon
[18] = system: IGROV1 ovarian
[19] = system: K-562 leukemia
[20] = system: KM12 colon
[21] = system: LOX IMVI melanoma
[22] = system: M14 melanoma
[23] = system: MALME-3M melanoma
[24] = system: MCF7 breast
[25] = system: MDA-MB-231 breast
[26] = system: MDA-MB-435
[27] = system: MOLT-4 leukemia
[28] = system: NCI-H226 lung
[29] = system: NCI-H460 lung
[30] = system: NCI-H522 lung
[31] = system: NCI/ADR-RES ovarian
[32] = system: OVCAR-3 ovarian
[33] = system: OVCAR-4 ovarian
[34] = system: OVCAR-5 ovarian
[35] = system: OVCAR-8 ovarian
[36] = system: PC-3 prostate
[37] = system: RPMI-8226 leukemia
[38] = system: RXF 393 renal
[39] = system: SF-268 CNS
[40] = system: SF-295 CNS
[41] = system: SF-539 CNS
[42] = system: SK-MEL-2 melanoma
[43] = system: SK-MEL-28 melanoma
[44] = system: SK-MEL-5 melanoma
[45] = system: SK-OV-3 ovarian
[46] = system: SN12C renal
[47] = system: SNB-19 CNS
[48] = system: SNB-75 CNS
[49] = system: SR leukemia
[50] = system: SW-620 colon
[51] = system: T-47D breast
[52] = system: TK-10 renal
[53] = system: U251 CNS
[54] = system: UACC-257 melanoma
[55] = system: UACC-62 melanoma
[56] = system: UO-31 renal
[57] = system: HS 578T breast

## C/C(=N\NC(=S)Nc1ccc(Br)cc1)c1cc2ccccc2oc1=O
[1]
  GI50: 2.46 µM
  TGI: 13.5 µM
[2]
  GI50: 14.4 µM
  TGI: 31.4 µM
[3]
  GI50: 2.39 µM
  TGI: 13.4 µM
[4]
  GI50: 0.76 µM
  TGI: 17.1 µM
[5]
  GI50: 1.26 µM
  TGI: 6.36 µM
[6]
  GI50: 0.561 µM
  TGI: 9.94 µM
[7]
  GI50: 0.464 µM
  TGI: 9.51 µM
[8]
  GI50: 3.34 µM
  TGI: 12.1 µM
[9]
  GI50: 1.79 µM
  TGI: 25.8 µM
[10]
  GI50: 2.85 µM
  TGI: 30.8 µM
[11]
  GI50: 1.69 µM
  TGI: 5.52 µM
[12]
  GI50: 0.579 µM
  TGI: 12.5 µM
[13]
  GI50: 0.404 µM
  TGI: 13.5 µM
[14]
  GI50: 0.44 µM
  TGI: 3.08 µM
[15]
  GI50: 0.841 µM
  TGI: 12.6 µM
[16]
  GI50: 1.21 µM
  TGI: 18 µM
[17]
  GI50: 3.72 µM
  TGI: 14.4 µM
[18]
  GI50: 0.84 µM
  TGI: 15.3 µM
[19]
  GI50: 0.42 µM
  TGI: 21.1 µM
[20]
  GI50: 0.6 µM
  TGI: 8.23 µM
[21]
  GI50: 0.53 µM
  TGI: 5.34 µM
[22]
  GI50: 0.604 µM
  TGI: 2.22 µM
[23]
  GI50: 1.12 µM
  TGI: 7 µM
[24]
  GI50: 0.87 µM
  TGI: 10.9 µM
[25]
  GI50: 0.956 µM
  TGI: 25.2 µM
[26]
  GI50: 0.353 µM
  TGI: 11.9 µM
[27]
  GI50: 0.46 µM
  TGI: 12 µM
[28]
  GI50: 1.28 µM
  TGI: 5.24 µM
[29]
  GI50: 0.462 µM
  TGI: 4.58 µM
[30]
  GI50: 0.582 µM
  TGI: 4.68 µM
[31]
  GI50: 0.523 µM
  TGI: 12.8 µM
[32]
  GI50: 0.427 µM
  TGI: 13 µM
[33]
  GI50: 2.24 µM
  TGI: 49.7 µM
[34]
  GI50: 2.46 µM
  TGI: 14.2 µM
[35]
  GI50: 1.12 µM
  TGI: 11.1 µM
[36]
  GI50: 0.833 µM
  TGI: 14 µM
[37]
  GI50: 1.21 µM
  TGI: 11.2 µM
[38]
  GI50: 1.45 µM
  TGI: 4 µM
[39]
  GI50: 0.883 µM
  TGI: 17.2 µM
[40]
  GI50: 2.49 µM
  TGI: 7.18 µM
[41]
  GI50: 1.33 µM
  TGI: 10.5 µM
[42]
  GI50: 0.789 µM
  TGI: 8.34 µM
[43]
  GI50: 0.872 µM
  TGI: 13.1 µM
[44]
  GI50: 1.19 µM
  TGI: 3.5 µM
[45]
  GI50: 3.12 µM
  TGI: 11.6 µM
[46]
  GI50: 1.59 µM
  TGI: 15.2 µM
[47]
  GI50: 1.41 µM
  TGI: 24.6 µM
[48]
  GI50: 0.615 µM
  TGI: 4.27 µM
[49]
  GI50: 0.314 µM
  TGI: 2.33 µM
[50]
  GI50: 0.892 µM
  TGI: 15.7 µM
[51]
  GI50: 0.952 µM
  TGI: 11.9 µM
[52]
  GI50: 4.65 µM
  TGI: 28.3 µM
[53]
  GI50: 0.64 µM
  TGI: 12 µM
[54]
  GI50: 2.24 µM
  TGI: 8.56 µM
[55]
  GI50: 0.476 µM
  TGI: 3.71 µM
[56]
  GI50: 0.587 µM
  TGI: 10.4 µM

## CCOc1ccc(-c2nnc(C3CC(NC(=O)c4cccc5nccnc45)C3)n2-c2ccccc2F)nc1 (centres undefined)
[1]
  GI50: 17.6 µM
  TGI: > 100 µM
[2]
  GI50: 8.31 µM
  TGI: 58.6 µM
[3]
  GI50: 24.2 µM
  TGI: > 100 µM
[4]
  GI50: 15.1 µM
  TGI: 29.8 µM
[5]
  GI50: 10.9 µM
  TGI: 23.7 µM
[6]
  GI50: 14.3 µM
  TGI: > 100 µM
[7]
  GI50: 21.3 µM
  TGI: 59.7 µM
[8]
  GI50: 19.1 µM
  TGI: 50.9 µM
[9]
  GI50: 25.9 µM
  TGI: > 100 µM
[10]
  GI50: 27 µM
  TGI: > 100 µM
[11]
  GI50: 18.3 µM
  TGI: 35.3 µM
[12]
  GI50: 16 µM
  TGI: 36.2 µM
[13]
  GI50: 23.2 µM
  TGI: 89 µM
[14]
  GI50: 20.9 µM
  TGI: 48.3 µM
[15]
  GI50: 12.7 µM
  TGI: 36.9 µM
[16]
  GI50: 4.02 µM
  TGI: 40 µM
[57]
  GI50: 16.3 µM
  TGI: 94.8 µM
[17]
  GI50: 15.1 µM
  TGI: 32.4 µM
[18]
  GI50: 17 µM
  TGI: > 100 µM
[19]
  GI50: 24.1 µM
  TGI: > 100 µM
[20]
  GI50: 23.6 µM
  TGI: 60.1 µM
[21]
  GI50: 17.5 µM
  TGI: 36.7 µM
[22]
  GI50: 16.2 µM
  TGI: 32.9 µM
[23]
  GI50: 17.4 µM
  TGI: 47.2 µM
[24]
  GI50: 21.4 µM
  TGI: 90.7 µM
[25]
  GI50: 17.7 µM
  TGI: 51.8 µM
[26]
  GI50: 21.2 µM
  TGI: 51.5 µM
[27]
  GI50: 14.8 µM
  TGI: 39.9 µM
[28]
  GI50: 13.1 µM
  TGI: 41.5 µM
[29]
  GI50: 26.9 µM
  TGI: > 100 µM
[30]
  GI50: 14.9 µM
  TGI: 34.2 µM
[31]
  GI50: 19.2 µM
  TGI: 92.9 µM
[32]
  GI50: 13.3 µM
  TGI: 36.1 µM
[33]
  GI50: 12.2 µM
  TGI: > 100 µM
[34]
  GI50: 18.2 µM
  TGI: 52.8 µM
[35]
  GI50: 22.8 µM
  TGI: > 100 µM
[36]
  GI50: 21.1 µM
  TGI: 86.9 µM
[37]
  GI50: 12.9 µM
  TGI: 35.3 µM
[38]
  GI50: 6.82 µM
  TGI: 21.5 µM
[39]
  GI50: 20.4 µM
  TGI: > 100 µM
[40]
  GI50: 18.7 µM
  TGI: 39.7 µM
[41]
  GI50: 14.6 µM
  TGI: 29.2 µM
[42]
  GI50: 14.8 µM
  TGI: 36.4 µM
[43]
  GI50: 19.3 µM
  TGI: 48.1 µM
[44]
  GI50: 14.2 µM
  TGI: 27.4 µM
[45]
  GI50: 13.6 µM
  TGI: 38.2 µM
[46]
  GI50: 14.7 µM
  TGI: 50.5 µM
[47]
  GI50: 24.5 µM
  TGI: > 100 µM
[48]
  GI50: 13.2 µM
  TGI: 46.4 µM
[49]
  GI50: 16.5 µM
  TGI: 52.9 µM
[50]
  GI50: 31.9 µM
  TGI: > 100 µM
[51]
  GI50: 7.24 µM
  TGI: 39.6 µM
[52]
  TGI: 31.1 µM
[53]
  GI50: 10.7 µM
  TGI: 29.8 µM
[54]
  GI50: 19.6 µM
  TGI: 51 µM
[55]
  GI50: 17.5 µM
  TGI: 38.4 µM
[56]
  TGI: > 100 µM
